According to patent US20090215732A1, “COMBINATION OF COMPOUNDS, WHICH CAN BE USED IN THE TREATMENT OF RESPIRATORY DISEASES, ESPECIALLY CHRONIC OBSTRUCTIVE PULMONARY DISEASE (COPD) AND ASTHMA” (priority 2005, published 2009):

Test: Estimated solubility of the salt in organic solvents
Format: physicochemical
Procedure: (b) The Form B salt described in (a) above was also prepared by dissolving, in a vial, 20% w of a sample of the benzoate salt prepared by the method of Example 1(b) (Form A) in a solvent such as methanol (>20 mg/ml), ethanol (>20 mg/ml), n-propanol (>20 mg/ml), isopropanol (8.5 mg/ml) or acetone (9.6 mg/ml). The figures in brackets indicate the estimated solubility of the salt in these solvents. The vial was then sealed and the suspension was homogenised at ambient temperature (20° C.) using a magnet. Stirring and temperature were maintained for a period of at least 7 days after which time a sample of the material obtained was dried and tested by XRPD. XRPD confirmed that there had been complete transformation of Form A to Form B.
(a) Form B was prepared by dissolving, in a vial, 20% w of a sample of the furoate salt prepared by the method of Example 1(b) (Form A) in a solvent such as ethanol (16 mg/ml) or 2-butanol (8 mg/ml). The figures in brackets indicate the estimated solubility of the salt in these solvents. The vial was then sealed and the suspension was homogenised at ambient temperature (20° C.) using a magnet. Stirring and temperature were maintained for a period of at least 7 days after which time a sample of the material obtained was dried and tested by XRPD. XRPD confirmed that there had been complete transformation of Form A to Form B.

SMILES | estimated solubility of the salt (solvent acetone) | estimated solubility of the salt (solvent ethanol) | estimated solubility of the salt (solvent isopropanol) | estimated solubility of the salt (solvent methanol) | estimated solubility of the salt (solvent n-propanol) | estimated solubility of the salt (solvent 2-butanol)
CC(=O)Nc1ccc(O)cc1OC[C@@](C)(O)CNC1CCN(Cc2ccc(Cl)cc2)CC1.O=C(O)c1ccccc1 [Example 1(b), N-{2-[((2S)-3-{[1-(4-chlorobenzyl)piperidin-4-yl]amino}-2-hydroxy-2-methylpropyl)oxy]-4-hydroxyphenyl}acetamide benzoate (1:1 salt), Form A] | 9.6 mg/mL | > 20 mg/mL | 8.5 mg/mL | > 20 mg/mL | > 20 mg/mL | 
CC(=O)Nc1ccc(O)cc1OC[C@@](C)(O)CNC1CCN(Cc2ccc(Cl)cc2)CC1.O=C(O)c1ccco1 [Example 1(c), N-{2-[((2S)-3-{[1-(4-chlorobenzyl)piperidin-4-yl]amino}-2-hydroxy-2-methylpropyl)oxy]-4-hydroxyphenyl}acetamide furoate (1:1 salt), Form A] |  | 16 mg/mL |  |  |  | 8 mg/mL
